Measurements as given in ChEMBL document CHEMBL4507258 (2021).

Legend:
[1] = target: Cyclin-dependent kinase 4 (Homo sapiens) (UniProt P11802); settings: Compound concentration 1000.0 nM
[2] = system: Epidermal growth factor receptor (Homo sapiens), P00533 [L861Q]; settings: Compound concentration 1000.0 nM
[3] = target: Homeodomain-interacting protein kinase 4 (Homo sapiens) (UniProt Q8NE63); settings: Compound concentration 1000.0 nM
[4] = target: Tyrosine-protein kinase Fer (Homo sapiens) (UniProt P16591); settings: Compound concentration 1000.0 nM
[5] = target: Cyclin-dependent kinase 11A (Homo sapiens) (UniProt Q9UQ88); settings: Compound concentration 1000.0 nM
[6] = target: Homeodomain-interacting protein kinase 2 (Homo sapiens) (UniProt Q9H2X6); settings: Compound concentration 1000.0 nM
[7] = target: Calcium/calmodulin-dependent protein kinase type II subunit alpha (Homo sapiens) (UniProt Q9UQM7); settings: Compound concentration 1000.0 nM
[8] = target: Tyrosine-protein kinase JAK1 (Homo sapiens) (UniProt P23458); settings: Compound concentration 1000.0 nM
[9] = target: Dual specificity mitogen-activated protein kinase kinase 6 (Homo sapiens) (UniProt P52564); settings: Compound concentration 1000.0 nM
[10] = target: Serine/threonine-protein kinase Nek2 (Homo sapiens) (UniProt P51955); settings: Compound concentration 1000.0 nM
[11] = target: Inhibitor of nuclear factor kappa-B kinase subunit alpha (Homo sapiens) (UniProt O15111); settings: Compound concentration 1000.0 nM
[12] = target: Mitotic checkpoint serine/threonine-protein kinase BUB1 (Homo sapiens) (UniProt O43683); settings: Compound concentration 1000.0 nM
[13] = target: Serine/threonine-protein kinase MRCK alpha (Homo sapiens) (UniProt Q5VT25); settings: Compound concentration 1000.0 nM
[14] = target: Casein kinase I isoform alpha-like (Homo sapiens) (UniProt Q8N752); settings: Compound concentration 1000.0 nM
[15] = target: Sigma non-opioid intracellular receptor 1 (Homo sapiens, UniProt Q99720); settings: Compound concentration 10.0 uM
[16] = target: SRSF protein kinase 2 (Homo sapiens) (UniProt P78362); settings: Compound concentration 1000.0 nM
[17] = target: Serine/threonine-protein kinase 38-like (Homo sapiens) (UniProt Q9Y2H1); settings: Compound concentration 1000.0 nM
[18] = target: Microtubule-associated serine/threonine-protein kinase 1 (Homo sapiens) (UniProt Q9Y2H9); settings: Compound concentration 1000.0 nM
[19] = target: Activin receptor type-2A (Homo sapiens) (UniProt P27037); settings: Compound concentration 1000.0 nM
[20] = target: Epidermal growth factor receptor (Homo sapiens) (UniProt P00533); settings: Compound concentration 1000.0 nM
[21] = target: Focal adhesion kinase 1 (Homo sapiens) (UniProt Q05397); settings: Compound concentration 1000.0 nM
[22] = target: Histamine H1 receptor (Homo sapiens, UniProt P35367); settings: Compound concentration 10.0 uM
[23] = target: Tyrosine-protein kinase JAK2 (Homo sapiens) (UniProt O60674); settings: Compound concentration 1000.0 nM
[24] = target: Dual specificity protein kinase TTK (Homo sapiens) (UniProt P33981); settings: Compound concentration 1000.0 nM
[25] = target: MAP kinase-interacting serine/threonine-protein kinase 1 (Homo sapiens) (UniProt Q9BUB5); settings: Compound concentration 1000.0 nM
[26] = target: Cyclin-dependent kinase 4 (Homo sapiens) (UniProt P11802); settings: Compound concentration 1000.0 nM; remark: listed apart in the source
[27] = target: Tyrosine-protein kinase ITK/TSK (Homo sapiens) (UniProt Q08881); settings: Compound concentration 1000.0 nM
[28] = target: Mitogen-activated protein kinase kinase kinase 13 (Homo sapiens) (UniProt O43283); settings: Compound concentration 1000.0 nM
[29] = target: Serine/threonine-protein kinase Nek9 (Homo sapiens) (UniProt Q8TD19); settings: Compound concentration 1000.0 nM
[30] = target: Cyclin-dependent kinase 2 (Homo sapiens) (UniProt P24941); settings: Compound concentration 1000.0 nM
[31] = target: Serine/threonine-protein kinase Nek1 (Homo sapiens) (UniProt Q96PY6); settings: Compound concentration 1000.0 nM
[32] = target: Receptor-interacting serine/threonine-protein kinase 2 (Homo sapiens) (UniProt O43353); settings: Compound concentration 1000.0 nM
[33] = target: cGMP-dependent protein kinase 1 (Homo sapiens) (UniProt Q13976); settings: Compound concentration 1000.0 nM
[34] = target: Wee1-like protein kinase (Homo sapiens) (UniProt P30291); settings: Compound concentration 1000.0 nM
[35] = target: Sigma intracellular receptor 2 (Homo sapiens) (UniProt Q5BJF2); settings: Compound concentration 10.0 uM
[36] = system: Mast/stem cell growth factor receptor Kit (Homo sapiens), P10721 [L576P]; settings: Compound concentration 1000.0 nM
[37] = target: Cyclin-dependent kinase 16 (Homo sapiens) (UniProt Q00536); settings: Compound concentration 1000.0 nM
[38] = target: Cyclin-dependent kinase-like 2 (Homo sapiens) (UniProt Q92772); settings: Compound concentration 1000.0 nM
[39] = target: T1, D(4) dopamine receptor (Homo sapiens) (UniProt P21917); settings: Compound concentration 10.0 uM
T1 sequence (whole entry): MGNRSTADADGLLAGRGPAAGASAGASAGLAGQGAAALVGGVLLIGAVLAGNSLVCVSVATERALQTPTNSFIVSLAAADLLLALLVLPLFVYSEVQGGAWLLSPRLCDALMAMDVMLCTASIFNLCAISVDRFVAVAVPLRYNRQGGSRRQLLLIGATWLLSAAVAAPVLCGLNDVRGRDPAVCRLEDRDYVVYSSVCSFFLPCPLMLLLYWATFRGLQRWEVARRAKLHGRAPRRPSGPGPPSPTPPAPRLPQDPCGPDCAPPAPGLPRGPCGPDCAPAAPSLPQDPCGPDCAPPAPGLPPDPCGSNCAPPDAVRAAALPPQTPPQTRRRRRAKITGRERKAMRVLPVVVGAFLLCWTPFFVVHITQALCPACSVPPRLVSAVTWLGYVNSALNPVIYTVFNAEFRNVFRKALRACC

[40] = target: Serine/threonine-protein kinase RIO3 (Homo sapiens) (UniProt O14730); settings: Compound concentration 1000.0 nM

Cyclin-dependent kinase 4 (Homo sapiens), sequence (P11802 whole entry): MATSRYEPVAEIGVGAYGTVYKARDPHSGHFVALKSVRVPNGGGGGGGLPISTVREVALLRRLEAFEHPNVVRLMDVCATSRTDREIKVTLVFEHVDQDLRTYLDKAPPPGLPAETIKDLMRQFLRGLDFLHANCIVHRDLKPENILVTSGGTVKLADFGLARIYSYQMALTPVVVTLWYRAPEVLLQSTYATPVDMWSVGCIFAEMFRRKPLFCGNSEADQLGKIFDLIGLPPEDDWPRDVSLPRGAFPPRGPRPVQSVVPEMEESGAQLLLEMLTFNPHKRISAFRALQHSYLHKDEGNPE
SRSF protein kinase 2 (Homo sapiens), sequence (P78362 whole entry, looked up): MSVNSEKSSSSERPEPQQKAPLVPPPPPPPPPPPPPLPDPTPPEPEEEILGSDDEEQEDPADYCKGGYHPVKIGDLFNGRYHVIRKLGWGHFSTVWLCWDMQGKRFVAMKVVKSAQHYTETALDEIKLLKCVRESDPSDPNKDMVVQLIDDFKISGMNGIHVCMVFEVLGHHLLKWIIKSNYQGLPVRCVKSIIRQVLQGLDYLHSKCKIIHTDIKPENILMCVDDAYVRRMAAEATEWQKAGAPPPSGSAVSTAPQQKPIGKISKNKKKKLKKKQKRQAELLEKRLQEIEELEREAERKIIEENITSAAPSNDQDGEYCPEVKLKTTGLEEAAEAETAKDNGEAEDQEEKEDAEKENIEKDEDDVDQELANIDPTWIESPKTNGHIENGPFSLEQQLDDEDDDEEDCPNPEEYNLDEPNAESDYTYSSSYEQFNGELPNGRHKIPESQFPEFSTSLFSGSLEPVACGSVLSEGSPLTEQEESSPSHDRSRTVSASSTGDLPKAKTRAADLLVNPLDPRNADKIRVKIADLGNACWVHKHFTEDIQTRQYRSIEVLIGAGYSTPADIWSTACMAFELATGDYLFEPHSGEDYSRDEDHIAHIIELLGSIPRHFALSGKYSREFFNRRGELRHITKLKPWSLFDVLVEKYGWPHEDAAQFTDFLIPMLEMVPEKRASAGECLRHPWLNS
Casein kinase I isoform alpha-like (Homo sapiens), sequence (Q8N752 whole entry, canonical isoform): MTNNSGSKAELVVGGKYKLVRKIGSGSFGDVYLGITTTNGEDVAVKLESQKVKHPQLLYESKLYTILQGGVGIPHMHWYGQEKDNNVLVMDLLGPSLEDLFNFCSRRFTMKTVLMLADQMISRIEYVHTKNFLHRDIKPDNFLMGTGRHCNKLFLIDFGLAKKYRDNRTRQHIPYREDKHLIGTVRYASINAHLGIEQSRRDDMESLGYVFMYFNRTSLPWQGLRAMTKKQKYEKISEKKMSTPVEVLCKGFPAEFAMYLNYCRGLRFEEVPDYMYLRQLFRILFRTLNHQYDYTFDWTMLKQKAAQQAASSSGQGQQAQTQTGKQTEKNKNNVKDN
Tyrosine-protein kinase ITK/TSK (Homo sapiens), sequence (Q08881 whole entry): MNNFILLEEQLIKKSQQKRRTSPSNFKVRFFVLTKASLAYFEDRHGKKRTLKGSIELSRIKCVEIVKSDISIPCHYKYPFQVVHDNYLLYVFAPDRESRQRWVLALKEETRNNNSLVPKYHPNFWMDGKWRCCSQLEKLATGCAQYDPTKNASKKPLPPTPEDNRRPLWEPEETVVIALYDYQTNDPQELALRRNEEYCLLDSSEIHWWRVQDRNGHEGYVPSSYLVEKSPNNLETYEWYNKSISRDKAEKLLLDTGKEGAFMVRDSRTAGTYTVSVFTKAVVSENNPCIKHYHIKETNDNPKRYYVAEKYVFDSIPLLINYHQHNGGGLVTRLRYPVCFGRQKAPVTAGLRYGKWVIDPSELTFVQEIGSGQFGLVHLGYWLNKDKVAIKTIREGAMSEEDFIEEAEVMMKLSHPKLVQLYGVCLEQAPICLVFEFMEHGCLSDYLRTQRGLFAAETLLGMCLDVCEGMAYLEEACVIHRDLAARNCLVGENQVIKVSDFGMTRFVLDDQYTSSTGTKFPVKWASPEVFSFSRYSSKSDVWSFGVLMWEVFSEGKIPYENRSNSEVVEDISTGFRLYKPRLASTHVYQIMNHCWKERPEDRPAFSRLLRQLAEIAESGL
Serine/threonine-protein kinase 38-like (Homo sapiens), sequence (Q9Y2H1 2-464 limits assumed): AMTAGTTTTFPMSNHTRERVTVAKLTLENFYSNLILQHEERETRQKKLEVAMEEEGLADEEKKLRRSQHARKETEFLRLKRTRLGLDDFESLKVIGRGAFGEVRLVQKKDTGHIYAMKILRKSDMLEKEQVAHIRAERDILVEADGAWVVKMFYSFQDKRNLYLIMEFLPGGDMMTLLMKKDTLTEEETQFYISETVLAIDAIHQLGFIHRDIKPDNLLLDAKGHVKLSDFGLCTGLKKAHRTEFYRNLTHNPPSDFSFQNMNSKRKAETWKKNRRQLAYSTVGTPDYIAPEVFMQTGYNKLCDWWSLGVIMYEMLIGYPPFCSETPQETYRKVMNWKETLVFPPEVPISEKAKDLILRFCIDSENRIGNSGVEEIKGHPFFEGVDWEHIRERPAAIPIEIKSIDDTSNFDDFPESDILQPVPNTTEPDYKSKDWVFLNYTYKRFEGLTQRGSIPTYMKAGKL
Homeodomain-interacting protein kinase 2 (Homo sapiens), sequence (Q9H2X6 whole entry, looked up): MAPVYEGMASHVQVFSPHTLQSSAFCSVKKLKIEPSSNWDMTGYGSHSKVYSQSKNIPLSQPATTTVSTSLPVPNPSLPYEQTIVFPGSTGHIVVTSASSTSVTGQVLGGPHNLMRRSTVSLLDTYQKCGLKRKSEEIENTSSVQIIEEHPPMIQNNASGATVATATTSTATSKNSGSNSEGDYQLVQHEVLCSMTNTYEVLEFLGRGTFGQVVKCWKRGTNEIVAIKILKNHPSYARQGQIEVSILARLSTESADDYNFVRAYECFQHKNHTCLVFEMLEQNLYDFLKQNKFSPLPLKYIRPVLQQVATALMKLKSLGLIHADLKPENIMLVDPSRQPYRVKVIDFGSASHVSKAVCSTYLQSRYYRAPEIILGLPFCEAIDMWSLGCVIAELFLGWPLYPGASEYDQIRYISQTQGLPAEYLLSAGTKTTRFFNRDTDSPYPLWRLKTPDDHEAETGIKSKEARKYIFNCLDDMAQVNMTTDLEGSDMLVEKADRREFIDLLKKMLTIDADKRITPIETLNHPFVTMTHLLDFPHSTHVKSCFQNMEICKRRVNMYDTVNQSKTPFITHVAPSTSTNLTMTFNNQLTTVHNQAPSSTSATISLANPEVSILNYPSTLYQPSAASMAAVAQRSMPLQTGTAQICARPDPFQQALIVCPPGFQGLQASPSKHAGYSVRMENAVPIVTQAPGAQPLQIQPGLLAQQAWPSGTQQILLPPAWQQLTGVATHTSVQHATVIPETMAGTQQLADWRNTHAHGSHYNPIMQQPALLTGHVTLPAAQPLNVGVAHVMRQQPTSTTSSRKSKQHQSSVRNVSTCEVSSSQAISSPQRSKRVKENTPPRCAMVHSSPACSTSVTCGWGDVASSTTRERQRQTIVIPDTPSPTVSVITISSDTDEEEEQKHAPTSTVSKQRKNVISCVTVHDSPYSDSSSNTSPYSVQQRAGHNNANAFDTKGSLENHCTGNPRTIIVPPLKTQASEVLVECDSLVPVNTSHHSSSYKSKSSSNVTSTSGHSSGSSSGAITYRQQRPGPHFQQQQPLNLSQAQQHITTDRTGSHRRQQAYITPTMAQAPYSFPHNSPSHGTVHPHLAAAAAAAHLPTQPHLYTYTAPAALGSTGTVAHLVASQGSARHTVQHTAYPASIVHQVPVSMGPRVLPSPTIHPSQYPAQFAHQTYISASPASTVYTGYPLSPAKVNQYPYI
Mast/stem cell growth factor receptor Kit (Homo sapiens), P10721 [L576P], sequence (P10721 whole entry L576P): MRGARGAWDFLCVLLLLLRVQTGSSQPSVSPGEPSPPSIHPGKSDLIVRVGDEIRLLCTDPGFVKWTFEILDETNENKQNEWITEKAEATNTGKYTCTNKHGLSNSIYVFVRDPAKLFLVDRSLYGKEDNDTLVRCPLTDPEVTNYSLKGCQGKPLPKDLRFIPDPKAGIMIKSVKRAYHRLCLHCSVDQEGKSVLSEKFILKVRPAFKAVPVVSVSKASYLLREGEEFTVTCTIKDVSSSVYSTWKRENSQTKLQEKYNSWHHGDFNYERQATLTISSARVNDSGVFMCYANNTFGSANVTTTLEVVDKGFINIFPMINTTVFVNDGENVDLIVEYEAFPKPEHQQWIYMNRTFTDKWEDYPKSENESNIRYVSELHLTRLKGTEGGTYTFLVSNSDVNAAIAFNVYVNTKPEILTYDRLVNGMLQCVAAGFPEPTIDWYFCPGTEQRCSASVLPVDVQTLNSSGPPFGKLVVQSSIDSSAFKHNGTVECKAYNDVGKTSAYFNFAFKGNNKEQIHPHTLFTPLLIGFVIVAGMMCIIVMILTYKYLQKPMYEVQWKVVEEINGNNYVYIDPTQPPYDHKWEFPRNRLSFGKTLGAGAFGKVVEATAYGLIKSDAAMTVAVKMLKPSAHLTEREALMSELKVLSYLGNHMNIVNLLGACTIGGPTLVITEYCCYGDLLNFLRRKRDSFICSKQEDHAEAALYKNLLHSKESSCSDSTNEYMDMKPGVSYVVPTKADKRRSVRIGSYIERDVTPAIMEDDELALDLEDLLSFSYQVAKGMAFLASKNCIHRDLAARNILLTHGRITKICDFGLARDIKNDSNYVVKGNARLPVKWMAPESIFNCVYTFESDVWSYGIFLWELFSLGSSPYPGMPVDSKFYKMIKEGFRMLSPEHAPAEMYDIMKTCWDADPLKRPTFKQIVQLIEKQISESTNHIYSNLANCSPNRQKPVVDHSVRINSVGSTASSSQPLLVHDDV
Dual specificity mitogen-activated protein kinase kinase 6 (Homo sapiens), sequence (P52564 whole entry): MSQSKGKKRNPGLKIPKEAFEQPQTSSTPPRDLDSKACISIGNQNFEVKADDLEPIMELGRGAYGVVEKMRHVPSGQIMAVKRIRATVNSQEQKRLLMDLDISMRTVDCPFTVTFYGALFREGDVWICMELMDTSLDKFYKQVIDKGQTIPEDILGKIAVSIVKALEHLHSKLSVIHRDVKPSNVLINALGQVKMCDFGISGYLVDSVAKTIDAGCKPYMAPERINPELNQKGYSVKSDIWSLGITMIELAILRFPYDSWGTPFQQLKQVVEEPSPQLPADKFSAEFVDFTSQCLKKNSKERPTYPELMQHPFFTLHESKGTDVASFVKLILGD

**Q.** How did the residual activity [1] turn out when `CCCCN(CCCC)C(=O)CN1C[C@@H](c2cc(OC)c3c(c2)OCO3)[C@H](C(=O)O)[C@H]1CC(C)(C)CCC` [A-545] was run?
**A.** 100%

**Q.** What about the residual activity [2] of the same molecule?
**A.** 100%

**Q.** And the residual activity [3]?
**A.** 100%

**Q.** What about the residual activity [4] of the same molecule?
**A.** 100%

**Q.** And the residual activity [5]?
**A.** 98.3%

**Q.** And the residual activity [6]?
**A.** 97.1%

**Q.** What about the residual activity [7] of the same molecule?
**A.** 100%

**Q.** What about the residual activity [8] of the same molecule?
**A.** 100%

**Q.** And the residual activity [9]?
**A.** 90.8%

**Q.** And the residual activity [10]?
**A.** 98.7%

**Q.** And the residual activity [11]?
**A.** 100%

**Q.** What about the residual activity [12] of the same molecule?
**A.** 94.9%

**Q.** What about the residual activity [13] of the same molecule?
**A.** 96.6%

**Q.** What about the residual activity [14] of the same molecule?
**A.** 91.1%

**Q.** What about the inhibition [15] of the same molecule?
**A.** 93.6%

**Q.** What about the residual activity [16] of the same molecule?
**A.** 100%

**Q.** And the residual activity [17]?
**A.** 92.4%

**Q.** What about the residual activity [18] of the same molecule?
**A.** 100%

**Q.** What about the residual activity [19] of the same molecule?
**A.** 85.1%

**Q.** And the residual activity [20]?
**A.** 100%

**Q.** What about the residual activity [21] of the same molecule?
**A.** 100%

**Q.** What about the inhibition [22] of the same molecule?
**A.** 47.4%

**Q.** What about the residual activity [23] of the same molecule?
**A.** 91%

**Q.** What about the residual activity [24] of the same molecule?
**A.** 100%

**Q.** What about the residual activity [25] of the same molecule?
**A.** 100%

**Q.** And the residual activity [26]?
**A.** 92.7%

**Q.** And the residual activity [27]?
**A.** 100%

**Q.** What about the residual activity [28] of the same molecule?
**A.** 100%

**Q.** What about the residual activity [29] of the same molecule?
**A.** 84.2%

**Q.** And the residual activity [30]?
**A.** 100%

**Q.** And the residual activity [31]?
**A.** 100%

**Q.** And the residual activity [32]?
**A.** 100%

**Q.** And the residual activity [33]?
**A.** 100%

**Q.** And the residual activity [34]?
**A.** 84.8%

**Q.** What about the inhibition [35] of the same molecule?
**A.** 41.3%

**Q.** And the residual activity [36]?
**A.** 100%

**Q.** And the residual activity [37]?
**A.** 100%

**Q.** What about the residual activity [38] of the same molecule?
**A.** 39.2%

**Q.** What about the inhibition [39] of the same molecule?
**A.** 87.1%

**Q.** And the residual activity [40]?
**A.** 100%

**Q.** With `CCCCN(CCCC)C(=O)CN1C[C@H](c2cc(OC)c3c(c2)OCO3)[C@@H](C(=O)O)[C@@H]1CC(C)(C)CCC` [ABT-546] as the molecule, how does the residual activity [1] read?
**A.** 42.7%

**Q.** What about the residual activity [2] of the same molecule?
**A.** 76.4%

**Q.** What about the residual activity [3] of the same molecule?
**A.** 100%

**Q.** What about the residual activity [4] of the same molecule?
**A.** 100%

**Q.** And the residual activity [5]?
**A.** 100%

**Q.** And the residual activity [6]?
**A.** 82.3%

**Q.** What about the residual activity [7] of the same molecule?
**A.** 100%

**Q.** What about the residual activity [8] of the same molecule?
**A.** 84.7%

**Q.** What about the residual activity [9] of the same molecule?
**A.** 100%

**Q.** And the residual activity [10]?
**A.** 100%

**Q.** And the residual activity [11]?
**A.** 56.2%

**Q.** What about the residual activity [12] of the same molecule?
**A.** 75.4%

**Q.** And the residual activity [13]?
**A.** 100%

**Q.** What about the residual activity [14] of the same molecule?
**A.** 100%

**Q.** What about the inhibition [15] of the same molecule?
**A.** 29.6%

**Q.** And the residual activity [16]?
**A.** 100%

**Q.** And the residual activity [17]?
**A.** 100%

**Q.** And the residual activity [18]?
**A.** 100%

**Q.** What about the residual activity [19] of the same molecule?
**A.** 97.4%

**Q.** What about the residual activity [20] of the same molecule?
**A.** 95.1%

**Q.** And the residual activity [21]?
**A.** 100%

**Q.** What about the inhibition [22] of the same molecule?
**A.** 53.6%

**Q.** And the residual activity [23]?
**A.** 100%

**Q.** And the residual activity [24]?
**A.** 100%

**Q.** And the residual activity [25]?
**A.** 93.3%

**Q.** What about the residual activity [26] of the same molecule?
**A.** 100%

**Q.** And the residual activity [27]?
**A.** 100%

**Q.** What about the residual activity [28] of the same molecule?
**A.** 89.3%

**Q.** And the residual activity [29]?
**A.** 100%

**Q.** What about the residual activity [30] of the same molecule?
**A.** 100%

**Q.** And the residual activity [31]?
**A.** 100%

**Q.** What about the residual activity [32] of the same molecule?
**A.** 100%

**Q.** And the residual activity [33]?
**A.** 100%

**Q.** What about the residual activity [34] of the same molecule?
**A.** 95.4%

**Q.** And the inhibition [35]?
**A.** 48.5%

**Q.** What about the residual activity [36] of the same molecule?
**A.** 100%

**Q.** What about the residual activity [37] of the same molecule?
**A.** 74.8%

**Q.** What about the residual activity [38] of the same molecule?
**A.** 100%

**Q.** And the inhibition [39]?
**A.** 21.7%

**Q.** And the residual activity [40]?
**A.** 74.9%
